From paper PMC8585049, “Z-DNA as a Tool for Nuclease-Free DNA Methyltransferase Assay” (International Journal of Molecular Sciences, 2021)
Entries after “also recorded” stand apart in the source; their conditions may differ. Like-named read-outs stand apart in the source and are kept apart here.

How the values were obtained:
[1] = target: T1, M.SssI (Spiroplasma monobiae, UniProt P15840); assay: smFRET B-Z transition-based DNA methylation (DMT inhibition) assay with M.SssI, UM core substrate; type: biochemical
T1 construct: purchased NEB (New England Biolabs, Inc., Ipswich, MA, USA)
Description: (§1) Here we define the degree of inhibition as: DOI=P(Z;DMT)−P(Z;DMT+drug)/P(Z;DMT)−P(Z;0) where P(Z;0) is the population of Z-DNA without any treatment (neither DMT nor inhibitor drug), P(Z;DMT) the Z-DNA population after incubation with DMT, and P(Z;DMT+drug) the Z-DNA population after incubation with DMT together with an inhibitor drug. […] On the opposite limit, the inhibition would be complete (DOI = 1) if P(Z;DMT+drug) completely reduces to the level of P(Z;0) . We employed the UM and HM molecules as substrates for M.SssI and DNMT1, respectively. We used 50 mM Mg^2+ and applied 80 U/mL M.SssI or 100 U/mL DNMT1. […] To check this possibility, we reduced SAM to 10 μM and repeated the inhibitor assay.
(§2) DMTs can change cytosine to methylcytosine by converting SAM to SAH (S-adenosyl homocysteine). In the inhibitor-free assay, we added reagents to water (or 0, 1.75, and 2.5% DMSO in water in control reactions for inhibitor assays) in the following order: SAM, 10× buffer, DNA, and M.SssI or DNMT1. In the DNMT1 assay, the reaction mixture of 20 μL contained 25 nM DNA duplex and 20~400 U/mL (in the inhibitor-free assays) or 100 U/mL (in the inhibitor assays) DNMT1 in the reaction buffer (160 μM SAM and 100 μg/mL BSA in 1× DNMT1 buffer (200 mM NaCl, 50 mM Tris-HCl, 1 mM EDTA, 1 mM DTT, 50% glycerol, pH 7.5)). In the M.SssI assay, the reaction mixture of 20 μL contained 25 nM DNA duplex and 10~200 U/mL (in the inhibitor-free assays) or 80 U/mL (in the inhibitor assays) M.SssI in the reaction buffer (160 μM SAM in 1× NEB buffer 2 (50 mM NaCl, 10 mM Tris-HCl, 10 mM MgCl2, 1 mM DTT, pH 7.9)). The effect of DMSO itself was tested because it was used in a solvent for DMT inhibitors. […] The mixture was incubated at 37 °C. After various lengths of incubation time (typically 2 h), the methylation reaction was stopped by heat inactivation of the enzymes at 65 °C for 20 min and the reaction mixtures were stored at −20 °C until the future experiments with the smFRET technique.
In the DMT inhibition assays, DMT inhibitors at various concentrations were added together with either M.SssI or DNMT1 when the enzyme was added to the reaction tube (Figure 4A). The reaction and analysis were performed identically except for the addition of inhibitors. […] In these assays, we varied the concentrations of the reagents (proteins or inhibitors) or incubation times. […]

[2] = target: T2, human DNA methyltransferase 1 (DNMT1) (Homo sapiens, UniProt P26358); assay: smFRET B-Z transition-based DNA methylation (DMT inhibition) assay with DNMT1, HM core substrate; type: biochemical; conditions: 100 U/mL DNMT1, HM core, 160 μM SAM, 50 mM Mg2+, 2-h incubation; read-out: IC50 (degree of inhibition of DNMT1 methylation activity)
T2 construct: purchased NEB (New England Biolabs, Inc., Ipswich, MA, USA)
Description: as §1
as §2, with “technique. […]” for “technique.”

T2 sequence (P26358 whole entry): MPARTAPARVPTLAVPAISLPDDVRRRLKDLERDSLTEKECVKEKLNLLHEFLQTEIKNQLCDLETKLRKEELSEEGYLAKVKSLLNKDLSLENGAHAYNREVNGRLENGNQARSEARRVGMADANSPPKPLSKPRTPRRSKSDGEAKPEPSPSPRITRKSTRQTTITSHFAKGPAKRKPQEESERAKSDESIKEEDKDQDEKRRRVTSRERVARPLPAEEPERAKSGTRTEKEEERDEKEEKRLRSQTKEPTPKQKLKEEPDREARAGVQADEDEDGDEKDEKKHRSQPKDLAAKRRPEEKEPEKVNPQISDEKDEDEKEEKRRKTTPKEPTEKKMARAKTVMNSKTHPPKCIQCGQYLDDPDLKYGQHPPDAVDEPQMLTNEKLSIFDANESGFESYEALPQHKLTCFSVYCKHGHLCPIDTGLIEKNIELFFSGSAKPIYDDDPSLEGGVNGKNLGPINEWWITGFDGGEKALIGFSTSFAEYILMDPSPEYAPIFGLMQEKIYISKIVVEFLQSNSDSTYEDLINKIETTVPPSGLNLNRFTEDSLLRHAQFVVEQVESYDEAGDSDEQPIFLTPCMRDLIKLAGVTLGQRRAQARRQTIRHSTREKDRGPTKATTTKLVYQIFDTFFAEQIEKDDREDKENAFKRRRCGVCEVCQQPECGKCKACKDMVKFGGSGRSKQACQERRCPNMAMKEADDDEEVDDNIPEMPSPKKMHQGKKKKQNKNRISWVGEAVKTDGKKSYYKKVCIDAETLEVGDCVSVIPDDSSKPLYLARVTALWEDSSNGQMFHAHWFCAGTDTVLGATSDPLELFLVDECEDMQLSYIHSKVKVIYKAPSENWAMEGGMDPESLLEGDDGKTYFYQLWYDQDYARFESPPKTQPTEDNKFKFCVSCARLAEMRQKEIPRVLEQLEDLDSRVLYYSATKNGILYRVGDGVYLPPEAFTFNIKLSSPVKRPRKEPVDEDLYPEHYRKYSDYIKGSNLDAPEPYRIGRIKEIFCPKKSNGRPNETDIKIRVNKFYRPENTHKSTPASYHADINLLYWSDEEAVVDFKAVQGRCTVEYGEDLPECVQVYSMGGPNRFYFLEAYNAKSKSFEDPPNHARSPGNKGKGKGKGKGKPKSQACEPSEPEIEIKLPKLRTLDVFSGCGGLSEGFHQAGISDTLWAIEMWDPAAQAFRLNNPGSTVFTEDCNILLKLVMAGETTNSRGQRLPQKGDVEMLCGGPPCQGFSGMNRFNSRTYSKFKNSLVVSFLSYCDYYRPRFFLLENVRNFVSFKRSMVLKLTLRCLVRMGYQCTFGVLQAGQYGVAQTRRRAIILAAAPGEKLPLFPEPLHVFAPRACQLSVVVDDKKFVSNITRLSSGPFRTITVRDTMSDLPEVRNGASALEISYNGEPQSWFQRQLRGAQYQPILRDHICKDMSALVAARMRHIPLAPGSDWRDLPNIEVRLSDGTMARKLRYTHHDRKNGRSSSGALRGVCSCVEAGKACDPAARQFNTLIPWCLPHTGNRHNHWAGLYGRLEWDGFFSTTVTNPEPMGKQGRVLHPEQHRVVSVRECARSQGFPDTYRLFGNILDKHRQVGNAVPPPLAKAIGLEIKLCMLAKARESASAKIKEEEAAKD
T1 sequence (P15840 whole entry): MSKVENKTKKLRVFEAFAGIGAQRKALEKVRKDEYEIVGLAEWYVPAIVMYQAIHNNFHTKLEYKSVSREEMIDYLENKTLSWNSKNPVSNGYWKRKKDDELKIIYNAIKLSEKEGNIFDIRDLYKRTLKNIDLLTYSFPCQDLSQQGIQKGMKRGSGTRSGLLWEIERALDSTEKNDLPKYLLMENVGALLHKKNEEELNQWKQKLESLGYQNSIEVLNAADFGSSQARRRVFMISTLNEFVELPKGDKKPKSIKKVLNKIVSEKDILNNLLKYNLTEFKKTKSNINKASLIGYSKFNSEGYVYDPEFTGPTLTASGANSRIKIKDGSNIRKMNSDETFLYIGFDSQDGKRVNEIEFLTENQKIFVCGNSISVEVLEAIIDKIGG

Row | IC50 ([1]; 80 U/mL M.SssI, UM core, 160 μM SAM, 50 mM Mg2+, 2-h incubation, read-out: IC50 (degree of inhibition of M.SssI methylation activity)) [µM] | IC50 ([1]; [SAM] = 10 μM, M.SssI, Figure S8, read-out: IC50 (degree of inhibition of M.SssI methylation activity) with low [SAM]) [µM] | IC50 [2] [µM] | Compound | Effect of [DMSO] on DNA methylation activity of M.SssI ([1]; [DMSO] up to 5 %, [M.SssI] = 80 U/ml, 50 mM Mg2+, Figure S1) | IC50 ([1]; IC50 (degree of inhibition of M.SssI methylation activity), 80 U/mL M.SssI, UM core, 160 μM SAM, 50 mM Mg2+, 2-h incubation) [µM]
1 |  |  |  | C[S+](C)[O-] [DMSO] | remains unchanged; also recorded: negligible effect | 
2 | ~80 | < 5 | ~100 | O=C(O[C@@H]1Cc2c(O)cc(O)cc2O[C@@H]1c1cc(O)c(O)c(O)c1)c1cc(O)c(O)c(O)c1 [EGCG, epigallocatechin gallate] |  | 
3 |  |  | ~1.3 | COc1cc(/C=C/C(=O)CC(=O)/C=C/c2ccc(O)c(OC)c2)ccc1O [curcumin] |  | 

Row | Compound | IC50 ([1]; 80 U/mL M.SssI, UM core, 160 μM SAM, 50 mM Mg2+, 2-h incubation, read-out: IC50 (degree of inhibition of M.SssI methylation activity)) [µM] | IC50 ([1]; [SAM] = 10 μM, M.SssI, Figure S8, read-out: IC50 (degree of inhibition of M.SssI methylation activity) with low [SAM]) [µM] | IC50 [2] [µM] | Effect of [DMSO] on DNA methylation activity of M.SssI ([1]; [DMSO] up to 5 %, [M.SssI] = 80 U/ml, 50 mM Mg2+, Figure S1) | IC50 ([1]; IC50 (degree of inhibition of M.SssI methylation activity), 80 U/mL M.SssI, UM core, 160 μM SAM, 50 mM Mg2+, 2-h incubation) [µM]
4 | O=c1c(-c2ccc(O)cc2)coc2cc(O)cc(O)c12 [genistein] |  |  | ~400 |  | ~600
